Reference: PubChem BioAssay (NCI)
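Test compounds were applied to cells in 96-well plates for 48 hours at 5 doses. At the GI50, growth is halved. TGI: total growth inhibition.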

Tests used:
Assay in all cases: inhibition of tumour cell growth, NCI panel, 48 h
SF-295 CNS = tested on: SF-295 CNS
T-47D breast = tested on: T-47D breast
HT29 colon = tested on: HT29 colon
HCC-2998 colon = tested on: HCC-2998 colon
HOP-62 NSCLC = tested on: HOP-62 NSCLC
A549 NSCLC = tested on: A549 NSCLC
NCI-H460 lung = tested on: NCI-H460 lung
NCI-H522 lung = tested on: NCI-H522 lung
HS 578T breast = tested on: HS 578T breast
ACHN renal = tested on: ACHN renal
OVCAR-3 ovarian = tested on: OVCAR-3 ovarian
U251 CNS = tested on: U251 CNS
SNB-19 CNS = tested on: SNB-19 CNS
OVCAR-5 ovarian = tested on: OVCAR-5 ovarian
EKVX NSCLC = tested on: EKVX NSCLC
SR leukemia = tested on: SR leukemia
SW-620 colon = tested on: SW-620 colon
SK-MEL-2 melanoma = tested on: SK-MEL-2 melanoma
SNB-75 CNS = tested on: SNB-75 CNS
RXF 393 renal = tested on: RXF 393 renal
SK-MEL-28 melanoma = tested on: SK-MEL-28 melanoma
HL-60(TB) leukemia = tested on: HL-60(TB) leukemia
LOX IMVI melanoma = tested on: LOX IMVI melanoma
NCI-H23 lung = tested on: NCI-H23 lung
SK-MEL-5 melanoma = tested on: SK-MEL-5 melanoma
NCI-H226 lung = tested on: NCI-H226 lung
SK-OV-3 ovarian = tested on: SK-OV-3 ovarian
HOP-92 NSCLC = tested on: HOP-92 NSCLC
M14 melanoma = tested on: M14 melanoma
UACC-62 melanoma = tested on: UACC-62 melanoma
KM12 colon = tested on: KM12 colon
DU-145 prostate = tested on: DU-145 prostate
OVCAR-4 ovarian = tested on: OVCAR-4 ovarian
COLO 205 colon = tested on: COLO 205 colon
RPMI-8226 leukemia = tested on: RPMI-8226 leukemia
786-0 renal = tested on: 786-0 renal
HCT-15 colon = tested on: HCT-15 colon
MCF7 breast = tested on: MCF7 breast
MDA-MB-231 breast = tested on: MDA-MB-231 breast
UO-31 renal = tested on: UO-31 renal
HCT-116 colon = tested on: HCT-116 colon
TK-10 renal = tested on: TK-10 renal
PC-3 prostate = tested on: PC-3 prostate
K-562 leukemia = tested on: K-562 leukemia
UACC-257 melanoma = tested on: UACC-257 melanoma
MOLT-4 leukemia = tested on: MOLT-4 leukemia
BT-549 breast = tested on: BT-549 breast
SF-268 CNS = tested on: SF-268 CNS
OVCAR-8 ovarian = tested on: OVCAR-8 ovarian
SF-539 CNS = tested on: SF-539 CNS
SN12C renal = tested on: SN12C renal
MDA-MB-435 = tested on: MDA-MB-435
CCRF-CEM leukemia = tested on: CCRF-CEM leukemia
IGROV1 ovarian = tested on: IGROV1 ovarian
CAKI-1 renal = tested on: CAKI-1 renal
NCI/ADR-RES ovarian = tested on: NCI/ADR-RES ovarian

CN(C)CCCn1c2c(c3cc4c(cc3c1=O)OCO4)C(=O)c1ccccc1-2
GI50 (SF-295 CNS): 3.12 µM
TGI (SF-295 CNS): 12.5 µM
GI50 (T-47D breast): 22.7 µM
TGI (T-47D breast): > 100 µM
GI50 (HT29 colon): 0.0472 µM
TGI (HT29 colon): > 100 µM
GI50 (HCC-2998 colon): 0.121 µM
GI50 (HOP-62 NSCLC): < 0.0318 µM
TGI (HOP-62 NSCLC): 1.43 µM
GI50 (A549 NSCLC): 0.105 µM
TGI (A549 NSCLC): 2.43 µM
GI50 (NCI-H460 lung): 8.82 µM
TGI (NCI-H460 lung): > 32.8 µM
GI50 (NCI-H522 lung): 4.59 µM
TGI (NCI-H522 lung): 35.2 µM
GI50 (HS 578T breast): 11.5 µM
TGI (HS 578T breast): 43.4 µM
GI50 (ACHN renal): < 0.0213 µM
TGI (ACHN renal): 0.234 µM
GI50 (OVCAR-3 ovarian): 2.36 µM
TGI (OVCAR-3 ovarian): 6.46 µM
GI50 (U251 CNS): 0.081 µM
TGI (U251 CNS): 3.5 µM
GI50 (SNB-19 CNS): 2.84 µM
TGI (SNB-19 CNS): > 100 µM
GI50 (OVCAR-5 ovarian): 11.1 µM
TGI (OVCAR-5 ovarian): 45.7 µM
GI50 (EKVX NSCLC): 5.55 µM
TGI (EKVX NSCLC): 34.9 µM
TGI (SR leukemia): 0.0486 µM
GI50 (SW-620 colon): 0.85 µM
TGI (SW-620 colon): > 39.9 µM
GI50 (SK-MEL-2 melanoma): 18.4 µM
TGI (SK-MEL-2 melanoma): > 59.5 µM
GI50 (SNB-75 CNS): 5.89 µM
TGI (SNB-75 CNS): 37.4 µM
GI50 (RXF 393 renal): 0.852 µM
TGI (RXF 393 renal): 8.93 µM
GI50 (SK-MEL-28 melanoma): 4.68 µM
TGI (SK-MEL-28 melanoma): > 100 µM
GI50 (HL-60(TB) leukemia): 3.35 µM
TGI (HL-60(TB) leukemia): 20.4 µM
GI50 (LOX IMVI melanoma): 0.0635 µM
TGI (LOX IMVI melanoma): 0.557 µM
GI50 (NCI-H23 lung): 0.231 µM
GI50 (SK-MEL-5 melanoma): 1.93 µM
TGI (SK-MEL-5 melanoma): 7.07 µM
GI50 (NCI-H226 lung): 3.25 µM
TGI (NCI-H226 lung): 11.3 µM
GI50 (SK-OV-3 ovarian): 4.99 µM
TGI (SK-OV-3 ovarian): > 39.3 µM
GI50 (HOP-92 NSCLC): 0.713 µM
TGI (HOP-92 NSCLC): 6.37 µM
GI50 (M14 melanoma): 0.0984 µM
TGI (M14 melanoma): 1.38 µM
GI50 (UACC-62 melanoma): 1.05 µM
TGI (UACC-62 melanoma): 9.57 µM
GI50 (KM12 colon): 2.89 µM
TGI (KM12 colon): 14.5 µM
GI50 (DU-145 prostate): 3.08 µM
TGI (DU-145 prostate): > 27.5 µM
GI50 (OVCAR-4 ovarian): 0.715 µM
TGI (OVCAR-4 ovarian): > 23.3 µM
GI50 (COLO 205 colon): 7.61 µM
TGI (COLO 205 colon): > 100 µM
GI50 (RPMI-8226 leukemia): 0.208 µM
TGI (RPMI-8226 leukemia): 2.82 µM
GI50 (786-0 renal): 0.0131 µM
TGI (786-0 renal): 1.96 µM
GI50 (HCT-15 colon): < 0.0275 µM
TGI (HCT-15 colon): 4.35 µM
GI50 (MCF7 breast): 6.84 µM
TGI (MCF7 breast): > 26.8 µM
GI50 (MDA-MB-231 breast): 0.465 µM
TGI (MDA-MB-231 breast): 4.29 µM
GI50 (UO-31 renal): 4.19 µM
TGI (UO-31 renal): 39.9 µM
TGI (HCT-116 colon): 0.384 µM
GI50 (TK-10 renal): 3.42 µM
TGI (TK-10 renal): 17.9 µM
GI50 (PC-3 prostate): 0.365 µM
TGI (PC-3 prostate): 3.59 µM
GI50 (K-562 leukemia): 0.0793 µM
GI50 (UACC-257 melanoma): 1.54 µM
TGI (UACC-257 melanoma): 14.9 µM
GI50 (MOLT-4 leukemia): < 0.0218 µM
TGI (MOLT-4 leukemia): 0.792 µM
GI50 (BT-549 breast): 5.52 µM
TGI (BT-549 breast): 29 µM
GI50 (SF-268 CNS): 13.9 µM
TGI (SF-268 CNS): > 44.4 µM
GI50 (OVCAR-8 ovarian): 0.0576 µM
TGI (OVCAR-8 ovarian): 0.922 µM
GI50 (SF-539 CNS): 3.57 µM
TGI (SF-539 CNS): 13.4 µM
GI50 (SN12C renal): 0.203 µM
TGI (SN12C renal): 3.16 µM
GI50 (MDA-MB-435): 1.49 µM
TGI (MDA-MB-435): 5.81 µM
GI50 (CCRF-CEM leukemia): 0.192 µM
TGI (CCRF-CEM leukemia): 3.51 µM
GI50 (IGROV1 ovarian): 3.33 µM
TGI (IGROV1 ovarian): 12.6 µM
GI50 (CAKI-1 renal): 3.01 µM
TGI (CAKI-1 renal): 9.4 µM

COc1cc(/C=C/C(=O)O[C@H]2[C@H](O[C@@H]3O[C@@H](C)[C@H](O)[C@@H](O)[C@H]3O)[C@@H](O)[C@H](OCCc3ccc(O)c(O)c3)O[C@@H]2COC2OCC(O)(CO)C2O)ccc1O (stereo partly drawn)
GI50 (SF-295 CNS): > 100 µM
TGI (SF-295 CNS): > 100 µM
GI50 (T-47D breast): > 100 µM
TGI (T-47D breast): > 100 µM
GI50 (HOP-62 NSCLC): > 100 µM
TGI (HOP-62 NSCLC): > 100 µM
GI50 (A549 NSCLC): > 100 µM
TGI (A549 NSCLC): > 100 µM
GI50 (NCI-H460 lung): > 100 µM
TGI (NCI-H460 lung): > 100 µM
GI50 (NCI-H522 lung): > 100 µM
TGI (NCI-H522 lung): > 100 µM
GI50 (HS 578T breast): 67.6 µM
TGI (HS 578T breast): > 100 µM
GI50 (ACHN renal): > 100 µM
TGI (ACHN renal): > 100 µM
GI50 (OVCAR-3 ovarian): > 100 µM
TGI (OVCAR-3 ovarian): > 100 µM
GI50 (U251 CNS): > 100 µM
TGI (U251 CNS): > 100 µM
GI50 (SNB-19 CNS): > 100 µM
TGI (SNB-19 CNS): > 100 µM
GI50 (OVCAR-5 ovarian): > 100 µM
TGI (OVCAR-5 ovarian): > 100 µM
GI50 (EKVX NSCLC): > 100 µM
TGI (EKVX NSCLC): > 100 µM
GI50 (SR leukemia): > 100 µM
TGI (SR leukemia): > 100 µM
GI50 (SW-620 colon): 20.1 µM
TGI (SW-620 colon): 46 µM
GI50 (SK-MEL-2 melanoma): > 100 µM
TGI (SK-MEL-2 melanoma): > 100 µM
GI50 (SNB-75 CNS): > 100 µM
TGI (SNB-75 CNS): > 100 µM
GI50 (RXF 393 renal): > 100 µM
TGI (RXF 393 renal): > 100 µM
GI50 (SK-MEL-28 melanoma): > 100 µM
TGI (SK-MEL-28 melanoma): > 100 µM
GI50 (HL-60(TB) leukemia): > 100 µM
TGI (HL-60(TB) leukemia): > 100 µM
GI50 (LOX IMVI melanoma): 21.6 µM
TGI (LOX IMVI melanoma): 53.6 µM
GI50 (SK-MEL-5 melanoma): > 100 µM
TGI (SK-MEL-5 melanoma): > 100 µM
GI50 (NCI-H226 lung): > 100 µM
TGI (NCI-H226 lung): > 100 µM
GI50 (SK-OV-3 ovarian): > 100 µM
TGI (SK-OV-3 ovarian): > 100 µM
GI50 (HOP-92 NSCLC): 0.402 µM
TGI (HOP-92 NSCLC): > 100 µM
GI50 (NCI/ADR-RES ovarian): > 100 µM
TGI (NCI/ADR-RES ovarian): > 100 µM
GI50 (M14 melanoma): > 100 µM
TGI (M14 melanoma): > 100 µM
GI50 (UACC-62 melanoma): > 100 µM
TGI (UACC-62 melanoma): > 100 µM
GI50 (KM12 colon): > 100 µM
TGI (KM12 colon): > 100 µM
GI50 (DU-145 prostate): > 100 µM
TGI (DU-145 prostate): > 100 µM
GI50 (OVCAR-4 ovarian): > 100 µM
TGI (OVCAR-4 ovarian): > 100 µM
GI50 (COLO 205 colon): > 100 µM
TGI (COLO 205 colon): > 100 µM
GI50 (RPMI-8226 leukemia): > 100 µM
TGI (RPMI-8226 leukemia): > 100 µM
GI50 (786-0 renal): > 100 µM
TGI (786-0 renal): > 100 µM
GI50 (HCT-15 colon): > 100 µM
TGI (HCT-15 colon): > 100 µM
GI50 (MDA-MB-231 breast): > 100 µM
TGI (MDA-MB-231 breast): > 100 µM
GI50 (UO-31 renal): > 100 µM
TGI (UO-31 renal): > 100 µM
GI50 (HCT-116 colon): > 100 µM
TGI (HCT-116 colon): > 100 µM
GI50 (TK-10 renal): > 100 µM
TGI (TK-10 renal): > 100 µM
GI50 (PC-3 prostate): > 100 µM
TGI (PC-3 prostate): > 100 µM
GI50 (K-562 leukemia): 63.3 µM
TGI (K-562 leukemia): > 100 µM
GI50 (UACC-257 melanoma): > 100 µM
TGI (UACC-257 melanoma): > 100 µM
GI50 (MOLT-4 leukemia): > 100 µM
TGI (MOLT-4 leukemia): > 100 µM
GI50 (BT-549 breast): 23.8 µM
TGI (BT-549 breast): 41.8 µM
GI50 (SF-268 CNS): 49.3 µM
TGI (SF-268 CNS): > 100 µM
GI50 (SN12C renal): > 100 µM
TGI (SN12C renal): > 100 µM
GI50 (MDA-MB-435): 17.3 µM
TGI (MDA-MB-435): 35.2 µM
GI50 (IGROV1 ovarian): > 100 µM
TGI (IGROV1 ovarian): > 100 µM
GI50 (CAKI-1 renal): > 100 µM
TGI (CAKI-1 renal): > 100 µM
